# Patent US9955676B2, “Transgenic model for delay-type hypersensitivity (DTH) and use thereof” (Macau University of Science and Technology, priority 2014, dated 2018)
# How the values were obtained:
# [1] = molecular target: T1, IKK-β C46A mutant (Homo sapiens, UniProt O14920, C46A); assay: IKK-β kinase assay (K-LISA IKKβ-Inhibitor Screening Kit) on cysteine mutants; assay type: biochemical; details: FIG. 6a
# T1 construct: FLAG; made in house
# T1 sequence (O14920 1-756 C46A): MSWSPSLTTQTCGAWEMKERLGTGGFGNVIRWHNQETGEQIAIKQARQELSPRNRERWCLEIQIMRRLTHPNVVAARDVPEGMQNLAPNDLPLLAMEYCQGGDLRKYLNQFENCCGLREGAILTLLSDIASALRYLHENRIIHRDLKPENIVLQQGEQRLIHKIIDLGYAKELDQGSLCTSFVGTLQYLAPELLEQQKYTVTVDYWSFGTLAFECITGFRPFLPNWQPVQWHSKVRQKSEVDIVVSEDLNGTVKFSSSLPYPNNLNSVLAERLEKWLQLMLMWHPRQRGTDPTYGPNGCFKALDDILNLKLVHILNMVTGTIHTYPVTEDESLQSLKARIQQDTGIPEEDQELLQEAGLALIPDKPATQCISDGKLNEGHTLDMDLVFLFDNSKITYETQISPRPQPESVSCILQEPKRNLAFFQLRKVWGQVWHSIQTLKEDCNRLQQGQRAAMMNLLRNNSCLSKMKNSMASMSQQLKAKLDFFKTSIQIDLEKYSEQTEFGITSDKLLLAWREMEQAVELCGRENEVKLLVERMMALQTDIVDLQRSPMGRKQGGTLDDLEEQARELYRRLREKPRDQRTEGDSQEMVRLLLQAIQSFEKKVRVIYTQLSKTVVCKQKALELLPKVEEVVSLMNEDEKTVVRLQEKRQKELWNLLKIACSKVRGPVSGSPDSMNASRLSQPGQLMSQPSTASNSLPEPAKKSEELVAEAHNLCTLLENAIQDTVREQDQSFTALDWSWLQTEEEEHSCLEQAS
# Protocol: IKK-β kinase assay is performed using a K-LISA™ IKKβ-Inhibitor Screening Kit (Calbiochem).
# To determine the specificity to which cysteine residue(s) on IKK-β for the inhibitory action of a well-known inhibitor, DMY, all other 15 single point mutation IKK-β constructs with cysteine (C) residues are replaced with alanine (A) by site-directed mutagenesis (FIG. 6a), except Cys-46.
# [2] = system: IKK-β C46A mutant mice; assay: DNFB-induced delay-type hypersensitivity test with immunohistochemical staining, mutant mice; assay type: in vivo, mouse; details: homozygous IKK-β C46A mutant mice
# Description: (§1) Delay-Type Hypersensitivity Test and Immunohistochemical Staining.
# (§2) The in vivo anti-inflammatory effect of DMY on CD4^+ and CD8^+ lymphocytes is examined by administering this inhibitor to the mouse with delay-type hypersensitivity (DTH) based on the previously described method. The ear samples of DTH mice are fixed in 4% neutral-buffered formalin. Each sample is cut longitudinally into half and embedded in paraffin (Panreac), and then cut into 5 μm sections. Immunohistochemical staining is performed on slides.
# [3] = system: IKK-β+/+ mice; assay: DNFB-induced delay-type hypersensitivity test with immunohistochemical staining, wild-type mice; assay type: in vivo, mouse; details: DNFB-induced DTH, FIG. 7
# Description: as §1, §2
# [4] = system: CIA rats; assay: Collagen-II induced arthritis (CIA) rat model; assay type: in vivo
# Protocol: Experimental arthritis induced by collagen-II in rats. CIA is induced in female Wistar rats. Dexamethasone (DEX, 0.1 mg/kg), methotrexate (MTX, 3.75 mg/kg, twice per week) and indomethacin (Indo, 1 mg/kg) are used as reference drugs.
# [5] = system: IKK-β (wt) / NF-κB signaling; assay: Western blotting of TNF-α-stimulated IKK-β−/− MEFs transfected with IKK-β wild-type; assay type: cell-based, mouse; details: DMY pretreatment 60 min, FIG. 6c
# Protocol: Western Blotting Analysis.
# IKK-β^−/− deficient mouse embryonic fibroblasts (MEFs) are provided as a gift by Prof. Michael Karin (University of California, San Diego). IKK-β^−/− deficient MEFs transfected with IKK-β wild-type or mutant C46A constructs are pretreated with DMY at 37° C. for 60 min, and then the cells are stimulated with TNF-α and harvested for western blotting analysis. The expressions of IκBα, p-p65^ser536, FLAG-IKK-β and actin are detected with their specific antibodies.
structure (smiles),measurement,setting,value
"O=C1c2c(O)cc(O)cc2O[C@H](c2cc(O)c(O)c(O)c2)[C@H]1O [DMY, dihydromyricetin]",kinase inhibitory effect (phosphorylation of IκBα),[1],abrogates the kinase inhibitory effect
same,anti-inflammatory potency in DTH responses,[2],diminished anti-inflammatory potency
same,number of CD8+ lymphocytes in ear sections,[3],gradually decreases
same,NF-κB signaling in the knee synovial tissues,"[4]; CIA rats, FIG. 8c",significantly suppress
same,organ indexes,"[4]; CIA rats, FIG. 8d",no adverse impairment
same,body weight,"[4]; CIA rats, compared to vehicle- and reference reagents-treated animals, FIG. 8e",prevent loss of body weight
same,hind paw volumes,"[4]; compared to vehicle-treated CIA rats, FIG. 8a",significantly decrease
same,arthritic scores,"[4]; compared to vehicle-treated CIA rats, FIG. 8b",significantly decrease
same,TNF-α-induced phosphorylation of NF-κB p65 and degradation of IκBα,[5],suppression of TNF-α-induced phosphorylation of NF-κB p65 and degradation of IκBα
